This passage reports Km results from publication PMC2674291 (The Open Biochemistry Journal, 2009).

The structures appear in SMILES notation.

The subject of assay [1] is Phenoloxidase of the susceptible strain (POs). Put plainly: absorbance at […] nm, initial rate, microtiter plate. The assay is classed as biochemical, Plutella xylostella. Particulars: 20 mM PBS pH 6.5; room temperature; partially purified enzyme.
The test system of assay [2] is Phenoloxidase of the resistant strain (POr). To be noted: 20 mM PBS pH 6.5; room temperature; partially purified enzyme.

What is called Km is the concentration of substrate that gives half-maximal velocity. As for `N[C@@H](Cc1ccc(O)c(O)c1)C(=O)O` [L-DOPA], the Km in assay [1] and in assay [2] was 1110 µM each time.
